Measurements taken from patent US7855297B2, “Amide derivatives and medicinal use thereof” (Mitsubishi Tanabe Pharma Corporation, priority 2000, dated 2010).

How the values were obtained:
[1] = biological target: T1, C5a receptor (Homo sapiens, UniProt P21730); assay: C5a receptor binding assay ([125I]-human C5a, dcAMP-U937 cells); conditions: [125I]-C5a 200 pM, 4° C., 2 hr, read-out: IC50 value, concentration at which binding of [125I]-human C5a is inhibited by 50%
T1 construct: U-937 cell was stimulated with 1 mM dibutyryl cyclic AMP (dcAMP, SIGMA) for 2 days to express the C5a receptor; endogenous in cells; host or cells: U-937 cells (human histiocytic lymphoma) differentiated with 1 mM dibutyryl cAMP for 2 days; whole cells, stored frozen and thawed before use
T1 sequence (P21730 1-350): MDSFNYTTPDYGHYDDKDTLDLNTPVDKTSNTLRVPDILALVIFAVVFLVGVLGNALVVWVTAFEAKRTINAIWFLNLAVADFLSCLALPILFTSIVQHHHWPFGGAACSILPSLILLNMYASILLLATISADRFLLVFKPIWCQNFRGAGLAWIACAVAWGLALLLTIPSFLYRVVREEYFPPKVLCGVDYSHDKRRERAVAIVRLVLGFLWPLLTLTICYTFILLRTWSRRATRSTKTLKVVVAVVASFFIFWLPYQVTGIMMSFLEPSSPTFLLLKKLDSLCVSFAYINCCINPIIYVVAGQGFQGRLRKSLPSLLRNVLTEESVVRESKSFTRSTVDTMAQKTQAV
Method: The C5a receptor binding inhibitory action of C5a and the test compound was evaluated by a receptor binding assay comprising reacting human cell line U-937 (human histiocytic lymphoma line), which expresses the C5a receptor, with [^125I]-human C5a (Amersham Pharmacia Biotech) in a MultiScreen (MILLIPORE). First, U-937 cell was stimulated with 1 mM dibutyryl cyclic AMP (dcAMP, SIGMA) for 2 days to express the C5a receptor (dcAMP-U937 cell), and suspended in a binding buffer [50 mM HEPES, 1 mM CaCl2, 5 mM MgCl2, 0.5% bovine albumin (BSA, SIGMA), 0.02% NaN3 (pH 7.2)] and stored at −80° C. […] After drying the MultiScreen, the radioactivity on the filter was measured using a gamma counter.
The rate (% inhibition) of inhibition of C5a binding by the test compound was calculated by the following formula using the count value obtained without addition of the test compound as Total, the count value obtained with addition of non-labeled C5a as Non, and the count value obtained with addition of the test compound as Test. % Inhibition=100−[(Test-Non)/(Total-Non)]×100 […]

[2] = system: C5a stimulated neutrophil; assay: Production of reactive oxygen species in C5a stimulated neutrophil; type: cell-based; conditions: human neutrophils, C5a 3 nmol/L, luminol luminescence; read-out: IC50 value, concentration at which production of reactive oxygen species in C5a stimulated neutrophil is inhibited by 50%
Method: A neutrophil fraction was separately taken from human peripheral venous blood using Lympholyte-poly (Cedarlane), and suspended in Hank's Balanced Salt Solution (HBSS, GIBCO BRL) containing 1% fetal bovine serum (FBS) and 1 mmol/L of luminol (Wako Pure Chemical Industries, Ltd.). Reactive oxygen species was measured using a luminometer (MicroLumat, Berthold) for 96 well plate. […] Then, 25 μL of C5a (final concentration 3 nmol/L) was added and luminescence produced by the reaction of the luminol and the reactive oxygen species was measured with the lapse of time for 15 min. The rate (% inhibition) of inhibition of the production of reactive oxygen species in C5a stimulated neutrophil by the test compound was calculated by the following formula, wherein the peak value of the production of reactive oxygen species derived by C5a without addition of the test compound is Max, the peak value of the production of reactive oxygen species without addition of the test compound and without C5a stimulation is Min, and the peak value of the production of reactive oxygen species derived by C5a with the addition of the test compound is Test. % Inhibition=100−[(Test-Min)/(Max-Min)]×100 […]

IC50 [1]: 104 nM | IC50 [2]: 10 nM | melting point: 121 °C
Structure (SMILES): CC(C)c1ccc(N(Cc2ccc(N(C)C)cc2)C(=O)C2CCCc3ccccc32)cc1 (stereo not drawn) [Example 4, N-[(4-dimethylaminophenyl)methyl]-N-(4-isopropylphenyl)-1,2,3,4-tetrahydronaphthalene-1-carboxamide]
